Experimental data as given in ChEMBL document CHEMBL1777763, “Discovery of a nortropanol derivative as a potent and orally active GPR119 agonist for type 2 diabetes” (Bioorg Med Chem Lett, 2011).
Activity calls are given as the source filed them. The rule behind the calls is not given here.

What was measured:
Mus musculus [1] = assay: Antidiabetic activity in overnight fasted mouse model assessed as blood glucose level at 3 mg/kg, po followed by 30 mins after administered 3 g/kg, po glucose by oral glucose tolerance test (reference value: 100 %); format: functional
[2] = Plasma concentration in lean mouse at 30 mg/kg, po after 60 mins; format: ADME, organism-based; set-up: dose 30 mg/kg, route oral
[3] = Plasma concentration in mouse at 3 mg/kg, po after 1 hr; format: ADME, organism-based; set-up: dose 3 mg/kg, route oral
Mus musculus [4] = assay: Antidiabetic activity in laen mouse model assessed as reduction in blood glucose level at 30 mg/kg, po up to 60 mins by oral glucose tolerance test; format: functional; conditions: 1 h
Rattus norvegicus [5] = assay: AUC (0 to 6 hrs) in rat at 10 mg/kg, po; format: ADME, organism-based, Plasma; set-up: time < 6 hr, dose 10 mg/kg, route oral; conditions: in vivo
[6] = target: T1, Glucose-dependent insulinotropic receptor (Mus musculus, UniProt Q7TQP3); assay: Agonist activity at mouse GPR119 expressed in HEK293 cells assessed as stimulation of cMAP level by cell-based cAMP assay; format: functional
T1 sequence (Q7TQP3 whole entry): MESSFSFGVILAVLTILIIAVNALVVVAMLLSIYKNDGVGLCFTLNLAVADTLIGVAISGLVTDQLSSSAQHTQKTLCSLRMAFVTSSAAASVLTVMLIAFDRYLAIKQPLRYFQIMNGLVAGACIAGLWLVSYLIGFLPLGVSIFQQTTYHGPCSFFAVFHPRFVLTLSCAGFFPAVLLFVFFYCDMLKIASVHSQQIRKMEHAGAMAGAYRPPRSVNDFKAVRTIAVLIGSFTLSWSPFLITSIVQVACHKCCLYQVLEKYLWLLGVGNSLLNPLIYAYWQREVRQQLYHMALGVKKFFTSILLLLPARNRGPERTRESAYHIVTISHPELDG

[7] = target: T2, Glucose-dependent insulinotropic receptor (Mus musculus) (UniProt Q7TQP3); assay: Agonist activity at mouse GPR119 expressed in HEK293 cells assessed as maximal stimulation of cMAP level by cell-based cAMP assay relative to 21; format: functional
T2 sequence (whole entry): T1 sequence (Q7TQP3 whole entry)

Rattus norvegicus [8] = assay: Antidiabetic activity in lean anesthetized rat hyperglycemic clamp model assessed as increase in insulin level at 1 mg/kg, iv relative to control
Salmonella typhimurium = assay: Genotoxicity in Salmonella Typhimurium by Ames test; format: toxicity, organism-based; conditions: salmonella enterica subsp. enterica serovar typhimurium
Mus musculus [9] = assay: Antidiabetic activity in laen mouse model assessed as reduction in blood glucose level at 3 mg/kg, po up to 60 mins by oral glucose tolerance test; format: functional; conditions: 1 h
Mus musculus [10] = assay: Antidiabetic activity in laen mouse model assessed as reduction in blood glucose level at 10 mg/kg, po up to 60 mins by oral glucose tolerance test; format: functional; conditions: 1 h
[11] = Plasma concentration in lean mouse at 10 mg/kg, po after 60 mins; format: ADME, organism-based; set-up: dose 10 mg/kg, route oral
Cytochrome P450 2C9 = Cytochrome P450 2C9 (Homo sapiens, UniProt P11712); assay: Inhibition of CYP2C9; format: ADME
hERG (KCNH2) = hERG (KCNH2) (Homo sapiens, UniProt Q12809); assay: Inhibition of human ERG at 10 uM
Cytochrome P450 2D6 = Cytochrome P450 2D6 (Homo sapiens, UniProt P10635); assay: Inhibition of CYP2D6; format: ADME
PXR (NR1I2) = target: T3, PXR (NR1I2) (Homo sapiens, UniProt O75469); assay: Inhibition of human PXR transfected in HepG2 cells at 10 uM; format: cell-based; conditions: HepG2 cells transfected with human PXR
T3 sequence (O75469 whole entry): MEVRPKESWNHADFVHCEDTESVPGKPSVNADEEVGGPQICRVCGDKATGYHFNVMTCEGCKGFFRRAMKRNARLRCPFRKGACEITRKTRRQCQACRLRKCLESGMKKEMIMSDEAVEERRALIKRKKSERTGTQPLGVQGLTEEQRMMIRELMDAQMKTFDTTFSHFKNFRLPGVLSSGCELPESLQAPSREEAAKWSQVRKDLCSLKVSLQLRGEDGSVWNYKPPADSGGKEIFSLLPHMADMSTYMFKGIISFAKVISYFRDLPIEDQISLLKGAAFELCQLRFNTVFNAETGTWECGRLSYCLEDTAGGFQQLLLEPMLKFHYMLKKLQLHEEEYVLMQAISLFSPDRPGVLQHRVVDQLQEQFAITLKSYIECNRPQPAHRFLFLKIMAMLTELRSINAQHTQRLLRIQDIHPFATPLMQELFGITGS

[12] = Tmax in monkey at 3 mg/kg, po; format: ADME, organism-based, Macaca mulatta; set-up: dose 3 mg/kg, route oral; conditions: rhesus monkey, in vivo
[13] = Plasma concentration in lean mouse at 3 mg/kg, po after 60 mins; format: ADME, organism-based; set-up: dose 3 mg/kg, route oral
Cytochrome P450 3A4 = Cytochrome P450 3A4 (Homo sapiens, UniProt P08684); assay: Inhibition of CYP3A4; format: ADME
Rhesus monkey = assay: AUC (0 to 24 hrs) in monkey at 3 mg/kg, po; format: ADME, organism-based, Macaca mulatta, Plasma; set-up: time < 24 hr, dose 3 mg/kg, route oral; conditions: in vivo
[14] = Cmax in monkey at 3 mg/kg, po; format: ADME, organism-based, Macaca mulatta; set-up: dose 3 mg/kg, route oral; conditions: rhesus monkey, in vivo
[15] = target: Probable G-protein coupled receptor 160 (Homo sapiens) (UniProt Q9UJ42); assay: Inhibition of GPCR-1 at 10 uM
Sequence of Probable G-protein coupled receptor 160 (Homo sapiens) (Q9UJ42 whole entry): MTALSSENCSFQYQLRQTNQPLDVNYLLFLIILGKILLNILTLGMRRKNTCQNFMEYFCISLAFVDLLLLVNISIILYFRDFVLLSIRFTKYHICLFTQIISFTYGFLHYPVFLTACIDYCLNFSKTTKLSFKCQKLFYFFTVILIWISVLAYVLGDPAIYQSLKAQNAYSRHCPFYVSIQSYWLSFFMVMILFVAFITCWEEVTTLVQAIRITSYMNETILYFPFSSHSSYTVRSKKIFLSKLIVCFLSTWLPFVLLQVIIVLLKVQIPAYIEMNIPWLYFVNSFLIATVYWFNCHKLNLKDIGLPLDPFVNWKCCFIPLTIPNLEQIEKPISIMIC

Sequence of Cytochrome P450 2D6 (P10635 whole entry): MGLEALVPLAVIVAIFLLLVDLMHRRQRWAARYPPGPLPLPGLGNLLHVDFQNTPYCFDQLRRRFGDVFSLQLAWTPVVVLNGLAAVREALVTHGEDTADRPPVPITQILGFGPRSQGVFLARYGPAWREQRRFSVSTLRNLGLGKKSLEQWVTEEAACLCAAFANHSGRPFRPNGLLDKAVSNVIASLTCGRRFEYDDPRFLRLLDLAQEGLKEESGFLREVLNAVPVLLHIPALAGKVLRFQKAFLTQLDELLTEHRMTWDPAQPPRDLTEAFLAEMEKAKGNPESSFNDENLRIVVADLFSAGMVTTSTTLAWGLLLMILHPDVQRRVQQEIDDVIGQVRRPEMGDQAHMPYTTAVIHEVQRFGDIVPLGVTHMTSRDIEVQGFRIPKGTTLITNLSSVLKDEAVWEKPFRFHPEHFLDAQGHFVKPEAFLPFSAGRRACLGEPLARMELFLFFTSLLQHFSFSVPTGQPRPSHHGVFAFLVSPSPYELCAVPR
Sequence of hERG (KCNH2) (Q12809 whole entry): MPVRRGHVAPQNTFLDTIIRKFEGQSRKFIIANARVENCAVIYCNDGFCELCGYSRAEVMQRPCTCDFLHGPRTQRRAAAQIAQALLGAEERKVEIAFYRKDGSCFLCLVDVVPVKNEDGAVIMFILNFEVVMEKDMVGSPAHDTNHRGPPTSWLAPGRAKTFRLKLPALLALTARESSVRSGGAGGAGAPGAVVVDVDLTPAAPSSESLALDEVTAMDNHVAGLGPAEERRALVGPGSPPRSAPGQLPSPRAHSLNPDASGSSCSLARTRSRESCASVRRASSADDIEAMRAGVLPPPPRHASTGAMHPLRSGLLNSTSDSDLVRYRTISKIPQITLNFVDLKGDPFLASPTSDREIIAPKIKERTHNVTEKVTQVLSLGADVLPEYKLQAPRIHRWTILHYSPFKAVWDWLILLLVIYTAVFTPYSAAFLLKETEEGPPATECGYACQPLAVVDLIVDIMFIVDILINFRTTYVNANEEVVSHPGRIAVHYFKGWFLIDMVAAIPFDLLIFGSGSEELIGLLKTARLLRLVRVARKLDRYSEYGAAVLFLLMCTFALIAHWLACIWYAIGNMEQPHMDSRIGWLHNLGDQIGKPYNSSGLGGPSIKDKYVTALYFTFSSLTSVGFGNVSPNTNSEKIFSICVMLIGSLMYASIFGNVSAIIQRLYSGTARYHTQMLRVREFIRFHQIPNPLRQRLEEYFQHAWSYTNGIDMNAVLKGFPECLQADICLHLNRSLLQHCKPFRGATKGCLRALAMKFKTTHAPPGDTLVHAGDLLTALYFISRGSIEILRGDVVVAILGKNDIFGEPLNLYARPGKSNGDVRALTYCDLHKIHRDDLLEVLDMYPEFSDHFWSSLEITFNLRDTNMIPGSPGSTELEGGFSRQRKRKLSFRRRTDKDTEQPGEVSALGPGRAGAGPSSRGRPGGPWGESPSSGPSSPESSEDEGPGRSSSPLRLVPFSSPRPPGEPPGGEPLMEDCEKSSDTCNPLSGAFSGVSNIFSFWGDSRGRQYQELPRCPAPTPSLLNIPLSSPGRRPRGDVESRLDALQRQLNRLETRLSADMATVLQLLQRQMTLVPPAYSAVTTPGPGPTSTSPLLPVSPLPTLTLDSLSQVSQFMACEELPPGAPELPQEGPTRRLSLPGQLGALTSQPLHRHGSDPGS
Sequence of Cytochrome P450 2C9 (P11712 whole entry): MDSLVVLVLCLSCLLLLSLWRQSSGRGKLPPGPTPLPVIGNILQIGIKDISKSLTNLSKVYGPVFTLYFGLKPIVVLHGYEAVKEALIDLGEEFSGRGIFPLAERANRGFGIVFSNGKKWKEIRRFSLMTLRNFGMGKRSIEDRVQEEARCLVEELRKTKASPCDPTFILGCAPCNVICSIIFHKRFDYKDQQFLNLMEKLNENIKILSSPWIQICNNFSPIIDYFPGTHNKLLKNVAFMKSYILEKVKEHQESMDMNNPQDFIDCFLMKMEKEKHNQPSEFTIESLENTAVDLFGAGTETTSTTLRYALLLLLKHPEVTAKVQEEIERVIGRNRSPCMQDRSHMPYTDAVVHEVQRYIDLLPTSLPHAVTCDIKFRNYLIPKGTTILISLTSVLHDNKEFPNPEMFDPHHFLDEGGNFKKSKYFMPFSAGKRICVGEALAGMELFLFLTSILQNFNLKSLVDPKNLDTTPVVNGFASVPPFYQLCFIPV
Sequence of Cytochrome P450 3A4 (P08684 whole entry): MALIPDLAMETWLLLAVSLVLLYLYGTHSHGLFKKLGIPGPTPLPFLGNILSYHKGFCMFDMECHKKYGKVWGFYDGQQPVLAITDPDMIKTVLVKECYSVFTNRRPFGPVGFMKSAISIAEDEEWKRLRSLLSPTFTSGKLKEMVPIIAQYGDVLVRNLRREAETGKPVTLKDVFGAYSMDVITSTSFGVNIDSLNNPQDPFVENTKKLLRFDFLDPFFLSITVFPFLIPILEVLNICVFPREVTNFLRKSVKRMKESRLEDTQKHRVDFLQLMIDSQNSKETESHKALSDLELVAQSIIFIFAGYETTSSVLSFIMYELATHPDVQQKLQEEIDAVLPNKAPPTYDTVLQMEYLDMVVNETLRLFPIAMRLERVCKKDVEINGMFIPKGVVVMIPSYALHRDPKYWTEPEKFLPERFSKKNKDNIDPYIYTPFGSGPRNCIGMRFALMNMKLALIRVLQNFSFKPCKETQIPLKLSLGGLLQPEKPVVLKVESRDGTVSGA

EC50 [6] | Activity [7] | Compound | further results
403 nM | 100% | CC(C)OC(=O)N1CCC(Oc2cc(Oc3ccc(S(C)(=O)=O)cc3F)ncn2)CC1 | Blood glucose (% of vehicle) (Mus musculus [1]): 78%; concentration at 1 h [2]: 12700 nM; concentration at 1 h [3]: 480 nM; inhibition in vivo at 30 mg/kg (Mus musculus [4]): 47%; AUC (Rattus norvegicus [5]): 20.7 µM·h
710 nM | 74% | Cc1ncccc1Oc1ncnc(O[C@H]2C[C@@H]3CC(F)[C@@H](C2)N3S(=O)(=O)C2CC2)c1C (some centres not stated) | –
220 nM | 52% | Cc1ncccc1Oc1ncnc(O[C@H]2C[C@@H]3CC(F)(F)[C@@H](C2)N3S(=O)(=O)C2CC2)c1C | –
59 nM | 31% | Cc1ncccc1Oc1ncnc(O[C@H]2C[C@H]3CC[C@@H](C2)N3C(=O)OC(C)C2CC2)c1C (some centres not stated) | –
26 nM | 29% | CCCCS(=O)(=O)N1C2CC[C@H]1C[C@@H](Oc1ncnc(Oc3cccnc3C)c1C)C2 (single isomer, unassigned) | –
55 nM | 20% | Cc1ncccc1Oc1ncnc(O[C@H]2CC3CC[C@@H](C2)N3C(=O)OC(C)C)c1C (single isomer, unassigned) | Blood glucose (% of vehicle) (Mus musculus [1]): 100%; concentration at 1 h [3]: 193 nM; AUC (Rattus norvegicus [5]): 0.175 µM·h
> 30000 nM | 12% | Cc1ncccc1Oc1ncnc(O[C@H]2CC3CC[C@@H](C2)N3C(=O)OC2(C)CC2)c1C (single isomer, unassigned) | Blood glucose (% of vehicle) (Mus musculus [1]): 95%; concentration at 1 h [3]: 130 nM; AUC (Rattus norvegicus [5]): 2.84 µM·h
324 nM | 25% | CCOC(=O)N1C2CC[C@H]1C[C@@H](Oc1ncnc(Oc3cccnc3C)c1C)C2 (single isomer, unassigned) | –
10400 nM | 20% | Cc1ncccc1Oc1ncnc(O[C@H]2CC3CC[C@@H](C2)N3C(=O)OCC(F)(F)F)c1C (single isomer, unassigned) | –
7570 nM | 33% | Cc1ncccc1Oc1ncnc(O[C@H]2CC3CC[C@@H](C2)N3C(=O)OCC2CC2)c1C (single isomer, unassigned) | –
660 nM | 62% | Cc1ncccc1Oc1ncnc(O[C@H]2CC3CC[C@@H](C2)N3S(=O)(=O)CC(F)(F)F)c1C (single isomer, unassigned) | –
63 nM | 76% | Cc1ncccc1Oc1ncnc(O[C@H]2CC3CC[C@@H](C2)N3S(=O)(=O)C2CC2)c1C (single isomer, unassigned) | Blood glucose (% of vehicle) (Mus musculus [1]): 87%; concentration at 1 h [3]: 2330 nM; AUC (Rattus norvegicus [5]): 0.879 µM·h
53 nM | 49% | CCCS(=O)(=O)N1C2CC[C@H]1C[C@@H](Oc1ncnc(Oc3cccnc3C)c1C)C2 (single isomer, unassigned) | –
250 nM | 62% | Cc1ncccc1Oc1ncnc(O[C@H]2CC3CC[C@@H](C2)N3S(=O)(=O)CCC(F)(F)F)c1C (single isomer, unassigned) | –
70 nM | 69% | Cc1ncccc1Oc1ncnc(O[C@H]2CC3CC[C@@H](C2)N3S(=O)(=O)CC(C)C)c1C (single isomer, unassigned) | AUC (Rattus norvegicus [5]): 0 µM·h
145 nM | 77% | Cc1ncccc1Oc1ncnc(O[C@H]2CC3CC[C@@H](C2)N3S(=O)(=O)c2ccc(Cl)s2)c1C (single isomer, unassigned) | –
350 nM | 78% | Cc1ncccc1Oc1ncnc(O[C@H]2CC3CC[C@@H](C2)N3S(=O)(=O)c2ccc(F)cc2)c1C (single isomer, unassigned) | –
640 nM | 88% | Cc1c(Nc2ccc(S(C)(=O)=O)cc2F)ncnc1O[C@H]1CC2CC[C@@H](C1)N2S(=O)(=O)C1CC1 (single isomer, unassigned) | –
82 nM | 58% | Cc1c(Oc2ccccc2Cl)ncnc1O[C@H]1CC2CC[C@@H](C1)N2S(=O)(=O)C1CC1 (single isomer, unassigned) | –
68 nM | 74% | Cc1c(Oc2ccccc2C#N)ncnc1O[C@H]1CC2CC[C@@H](C1)N2S(=O)(=O)C1CC1 (single isomer, unassigned) | Blood glucose (% of vehicle) (Mus musculus [1]): 88%; concentration at 1 h [3]: 290 nM; AUC (Rattus norvegicus [5]): 0.461 µM·h
290 nM | 44% | Cc1c(Oc2ccc(Cl)cc2C#N)ncnc1O[C@H]1CC2CC[C@@H](C1)N2S(=O)(=O)C1CC1 (single isomer, unassigned) | –
2000 nM | 110% | Cc1ncccc1Nc1ncnc(O[C@H]2CC3CC[C@@H](C2)N3S(=O)(=O)C2CC2)c1C (single isomer, unassigned) | –
180 nM | 80% | Cc1c(Nc2ccccc2C#N)ncnc1O[C@H]1CC2CC[C@@H](C1)N2S(=O)(=O)C1CC1 (single isomer, unassigned) | –
820 nM | 110% | Cc1c(Nc2ccc(F)cc2C#N)ncnc1O[C@H]1CC2CC[C@@H](C1)N2S(=O)(=O)C1CC1 (single isomer, unassigned) | –
220 nM | 84% | Cc1c(Nc2ccc(C#N)cc2F)ncnc1O[C@H]1CC2CC[C@@H](C1)N2S(=O)(=O)C1CC1 (single isomer, unassigned) | Blood glucose (% of vehicle) (Mus musculus [1]): 95%
140 nM | 110% | Cc1c(Nc2ccc(C#N)cc2Cl)ncnc1O[C@H]1CC2CC[C@@H](C1)N2S(=O)(=O)C1CC1 (single isomer, unassigned) | Activity (Rattus norvegicus [8]): Active; Blood glucose (% of vehicle) (Mus musculus [1]): 91%; concentration at 1 h [2]: 1400 nM; Activity (Salmonella typhimurium): Non-toxic; inhibition in vivo at 3 mg/kg (Mus musculus [9]): 28%; inhibition in vivo at 10 mg/kg (Mus musculus [10]): 30%; concentration at 1 h [11]: 800 nM; IC50 (Cytochrome P450 2C9): > 20000 nM; concentration at 1 h [3]: 275 nM; inhibition at 10 µM (hERG (KCNH2)): 9%; inhibition in vivo at 30 mg/kg (Mus musculus [4]): 39%; IC50 (Cytochrome P450 2D6): > 20000 nM; inhibition at 10 µM (PXR (NR1I2)): 0.09%; Tmax [12]: 4.5 h; AUC (Rattus norvegicus [5]): 2.17 µM·h; concentration at 1 h [13]: 400 nM; IC50 (Cytochrome P450 3A4): > 20000 nM; AUC (Rhesus monkey): 16.5 µM·h; Cmax [14]: 997 nM; inhibition [15]: < 30%
52 nM | 48% | Cc1ncccc1Oc1ncnc(O[C@H]2CC3C=C[C@@H](C2)N3C(=O)OC(C)C)c1C (single isomer, unassigned) | –
240 nM | 78% | Cc1ncccc1Oc1ncnc(O[C@H]2CC3C=C[C@@H](C2)N3S(=O)(=O)C2CC2)c1C (single isomer, unassigned) | –
300 nM | 20% | Cc1ncccc1Oc1ncnc(O[C@@H]2CC3CC[C@@H](C2)N3C(=O)OC(C)(C)C)c1C (single isomer, unassigned; 20f) | –
